From patent US10857123B2, “NLRP3 inhibitors for the treatment of inflammatory skin disorders” (GALDERMA RESEARCH & DEVELOPMENT, priority 2016, dated 2020)

What was measured:
Mouse Psoriasiform Model = experiment: Mouse psoriasiform model (imiquimod / Aldara-induced skin inflammation); assay type: in vivo, Balb/c mice; details: topical, 3% in acetone, once a day 2 h before Aldara, FIG. 4
Method: Example 2: Protocol for Testing an NLRP3 Antagonist (N-((1,2,3,5,6,7-hexahydro-s-indacen-4-yl)carbamoyl)-4-(2-hydroxypropan-2-yl)furan-2-sulfonamide, Compound 3, Also Known as MCC950) on a Mouse Psoriasiform Model
The treatment protocol consists of a daily topical application of Aldara® (3.18 mg of imiquimod) for 7 days to the shaved skin of Balb/c mice. The NLRP3 antagonist was dissolved in 3% acetone and was applied once a day 2 h before the treatment with Aldara®. The clinical score is an overall classification resulting from the sum of the erythema, edema and desquamation scores, on the basis of the overall evaluation by the physician of the Lattice system, known as LS PGA (J Am Acad Dermatol. 2004 October; 51(4):563-9).
Indeed, imiquimod induces inflamed scaly skin lesions resembling the psoriasis plaque. These lesions are associated with increased epidermal proliferation, abnormal differentiation, an epidermal accumulation of neutrophils in […], neoangiogenesis and infiltrates consisting of CD4+ T cells, of CD11c (+) dendritic cells and of plasmacytoid dendritic cells. Imiquimod induces an epidermal expression of IL-23, IL-17A and IL-17F, and also an increase in Th17 spleen cells. […]

[1] = test system: Mouse Atopic Dermatitis Model; experiment: Mouse atopic dermatitis model (epicutaneous sensitization with Dermatophagoides pteronyssinus allergen); assay type: in vivo, Balb/c mice; details: for Insensible water loss (IWL) decrease / Thickness of the epidermis (epidermal acanthosis) change / Inflammatory score reduction: day 51; for Insensible water loss (IWL) decrease: FIG. 1; for Thickness of the epidermis (epidermal acanthosis) change: FIG. 2; for Inflammatory score reduction: FIG. 3
Method: Example 1: Protocol for Testing an NLRP3 Antagonist (N-((1,2,3,5,6,7-hexahydro-s-indacen-4-yl)carbamoyl)-4-(2-hydroxypropan-2-yl)furan-2-sulfonamide, Compound 3, Also Known as MCC950) on a Mouse Atopic Dermatitis Model
Female Balb/c mice were treated with the allergen Dermatophagoides pteronyssinus (DERP) in 3 cycles of epicutaneous sensitization (per patch) on the abdominal skin with 2 patches applied twice a week, followed by 2 weeks of rest, for 7 weeks. Topical treatments with an NLRP3 antagonist (compound 3, 2% in an acetone carrier) or a corticosteroid (0.1% betamethasone valerate, used as a control) were carried out 3 times over the course of the third and final week of sensitization (on days 44, 47 and 50).
An inflammatory reaction was induced by epicutaneous sensitization with patches impregnated with 100 μg of allergen in a sterile saline solution (Dermatophagoides pteronyssinus or DERP) or with a carrier applied to the abdominal skin 24 hours after shaving and left for three periods of 1 week (with a change of patch in the middle of the week), with a gap of 2 weeks between applications.
For the systemic route, the NLRP3 antagonist was administered intravenously, 200 μl, 2.5 mg/ml once a day, for the final series of epicutaneous sensitization with the allergen (D44 to D50).
For the topical administration, the test antagonist (compound 3) was formulated at 2% in an acetone carrier, applied to the sensitized skin 2 hours before the DERP patches were put in place. The topical treatments with an NLRP3 antagonist or a corticosteroid (used as a control) were carried out 3 times over the course of the third and final week of sensitization (on days 44, 47 and 50). At the time the final patch was removed (day 51), the skin and blood samples were collected.
The IWL is measured using a Tewameter on an animal the day before day 51. The Tewameter® probe measures the gradient of density of the evaporation of water from the skin indirectly by means of two sensors (temperature and relative humidity) inside a hollow cylinder. A microprocessor analyzes the values and expresses the evaporation rate in g/h/m^2.
The thickness of the epidermis is measured by histological morphometric analyses on sections 6 μm thick, stained with hematoxylin eosin (HE), originating from skin samples fixed beforehand in […].
The inflammatory score is defined visually on the basis of predefined dryness, skin rash, baldness, excoriation and lichenification scales. The mean of the five scores given to one individual mouse on a given day indicates the clinical score given on the specific day.

[2] = systemic route (intravenous, 200 μl, 2.5 mg/ml once a day, D44 to D50)
[3] = topical route (2% in acetone carrier, days 44, 47 and 50)

Compound: CC(C)(O)c1coc(S(=O)(=O)NC(=O)Nc2c3c(cc4c2CCC4)CCC3)c1 [Compound 3, N-((1,2,3,5,6,7-hexahydro-s-indacen-4-yl)carbamoyl)-4-(2-hydroxypropan-2-yl)furan-2-sulfonamide]
- Reduction of imiquimod-induced skin inflammation on the basis of the clinical score (Mouse Psoriasiform Model; day 4): −36%
- Reduction of imiquimod-induced skin inflammation on the basis of the clinical score (Mouse Psoriasiform Model; day 5): −27%
- Insensible water loss (IWL) decrease [1, 2]: −60%
- Thickness of the epidermis (epidermal acanthosis) change [1, 2]: −38%
- Inflammatory score reduction [1, 2]: −62%
- Insensible water loss (IWL) decrease [1, 3]: −42%
- Thickness of the epidermis (epidermal acanthosis) change [1, 3]: −24%
- Inflammatory score reduction [1, 3]: −39%
- Efficacy compared with corticosteroid treatment ([1]; versus 0.1% betamethasone valerate, the corticosteroid control): quite close to the treatment with corticosteroids
